Reference: patent publication US20170281470A1, “METHOD AND APPARATUS FOR DRY GRANULATION” (ATACAMA LABS OY, priority 2006, published 2017)

Assay: Agglomeration during storage at room temperature and ambient humidity
Format: physicochemical
Conditions: stored in room temperature and ambient humidity

- agglomeration during storage: heavy agglomeration
Structure (SMILES): CN(C)C(=N)N=C(N)N [100% metformin fine powder, metformin]
